According to PubChem BioAssay (NCI):
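How tested: cells in 96-well plates exposed to compound for 48 hours at five concentrations. Abbreviation: GI50, concentration required for 50% inhibition of growth. TGI: concentration producing complete growth inhibition.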

Columns and labels:
Test in all cases: growth of human tumour cells (NCI), 48 h
SN12C renal = test system: SN12C renal
CCRF-CEM leukemia = test system: CCRF-CEM leukemia
MALME-3M melanoma = test system: MALME-3M melanoma
PC-3 prostate = test system: PC-3 prostate
U251 CNS = test system: U251 CNS
SNB-19 CNS = test system: SNB-19 CNS
HOP-62 NSCLC = test system: HOP-62 NSCLC
SF-295 CNS = test system: SF-295 CNS
RXF 393 renal = test system: RXF 393 renal
SK-MEL-28 melanoma = test system: SK-MEL-28 melanoma
UACC-257 melanoma = test system: UACC-257 melanoma
SR leukemia = test system: SR leukemia
NCI-H522 lung = test system: NCI-H522 lung
OVCAR-3 ovarian = test system: OVCAR-3 ovarian
TK-10 renal = test system: TK-10 renal
RPMI-8226 leukemia = test system: RPMI-8226 leukemia
ACHN renal = test system: ACHN renal
HOP-92 NSCLC = test system: HOP-92 NSCLC
HCT-116 colon = test system: HCT-116 colon
CAKI-1 renal = test system: CAKI-1 renal
HCC-2998 colon = test system: HCC-2998 colon
SK-MEL-5 melanoma = test system: SK-MEL-5 melanoma
SK-MEL-2 melanoma = test system: SK-MEL-2 melanoma
UO-31 renal = test system: UO-31 renal
IGROV1 ovarian = test system: IGROV1 ovarian
SK-OV-3 ovarian = test system: SK-OV-3 ovarian
A498 renal = test system: A498 renal
MDA-MB-468 breast = test system: MDA-MB-468 breast
KM12 colon = test system: KM12 colon
BT-549 breast = test system: BT-549 breast
MDA-MB-231 breast = test system: MDA-MB-231 breast
NCI-H226 lung = test system: NCI-H226 lung
T-47D breast = test system: T-47D breast
MOLT-4 leukemia = test system: MOLT-4 leukemia
786-0 renal = test system: 786-0 renal
NCI-H460 lung = test system: NCI-H460 lung
UACC-62 melanoma = test system: UACC-62 melanoma
MDA-MB-435 = test system: MDA-MB-435
SF-539 CNS = test system: SF-539 CNS
HCT-15 colon = test system: HCT-15 colon
HL-60(TB) leukemia = test system: HL-60(TB) leukemia
OVCAR-4 ovarian = test system: OVCAR-4 ovarian
M14 melanoma = test system: M14 melanoma
COLO 205 colon = test system: COLO 205 colon
A549 NSCLC = test system: A549 NSCLC
EKVX NSCLC = test system: EKVX NSCLC
SF-268 CNS = test system: SF-268 CNS
HS 578T breast = test system: HS 578T breast
OVCAR-5 ovarian = test system: OVCAR-5 ovarian
DU-145 prostate = test system: DU-145 prostate
SNB-75 CNS = test system: SNB-75 CNS
OVCAR-8 ovarian = test system: OVCAR-8 ovarian
K-562 leukemia = test system: K-562 leukemia
SW-620 colon = test system: SW-620 colon

With `COC(=O)C[C@](O)(CCC(C)C)C(=O)O[C@@H]1C(OC)=C[C@]23CCCN2CCc2cc4c(cc2[C@H]13)OCO4` as the molecule, how does the GI50 (SN12C renal) read?
The GI50 was 259 nM.

What about the TGI (SN12C renal) of the same molecule?
Its TGI is 1110 nM.

What about the GI50 (CCRF-CEM leukemia) of the same molecule?
The GI50 was 34.4 nM.

And the TGI (CCRF-CEM leukemia)?
The TGI was 431 nM.

And the GI50 (MALME-3M melanoma)?
Its GI50 is 20.1 nM.

And the TGI (MALME-3M melanoma)?
The TGI was 68.4 nM.

What about the GI50 (PC-3 prostate) of the same molecule?
Its GI50 is 52.1 nM.

What about the TGI (PC-3 prostate) of the same molecule?
Its TGI is 756 nM.

And the GI50 (U251 CNS)?
The GI50 was 39.2 nM.

What about the TGI (U251 CNS) of the same molecule?
The TGI was 4020 nM.

What about the GI50 (SNB-19 CNS) of the same molecule?
Its GI50 is 36 nM.

What about the TGI (SNB-19 CNS) of the same molecule?
The TGI was 305 nM.

What about the GI50 (HOP-62 NSCLC) of the same molecule?
Its GI50 is 244 nM.

What about the TGI (HOP-62 NSCLC) of the same molecule?
Its TGI is 1480 nM.

And the GI50 (SF-295 CNS)?
Its GI50 is 135 nM.

What about the TGI (SF-295 CNS) of the same molecule?
The TGI was 662 nM.

And the GI50 (RXF 393 renal)?
Its GI50 is 39.9 nM.

What about the TGI (RXF 393 renal) of the same molecule?
Its TGI is 285 nM.

What about the GI50 (SK-MEL-28 melanoma) of the same molecule?
Its GI50 is 70.6 nM.

What about the TGI (SK-MEL-28 melanoma) of the same molecule?
Its TGI is 352 nM.

And the GI50 (UACC-257 melanoma)?
The GI50 was 194 nM.

What about the TGI (UACC-257 melanoma) of the same molecule?
The TGI was 810 nM.

And the GI50 (SR leukemia)?
The GI50 was 18.2 nM.

What about the TGI (SR leukemia) of the same molecule?
Its TGI is 57.2 nM.

What about the GI50 (NCI-H522 lung) of the same molecule?
The GI50 was 21.2 nM.

And the TGI (NCI-H522 lung)?
Its TGI is 65.3 nM.

And the GI50 (OVCAR-3 ovarian)?
The GI50 was 39 nM.

What about the TGI (OVCAR-3 ovarian) of the same molecule?
Its TGI is 306 nM.

What about the GI50 (TK-10 renal) of the same molecule?
The GI50 was 136 nM.

And the TGI (TK-10 renal)?
Its TGI is 1090 nM.

What about the GI50 (RPMI-8226 leukemia) of the same molecule?
Its GI50 is 33.7 nM.

And the TGI (RPMI-8226 leukemia)?
Its TGI is 132 nM.

What about the GI50 (ACHN renal) of the same molecule?
Its GI50 is 40.2 nM.

What about the TGI (ACHN renal) of the same molecule?
Its TGI is 272 nM.

What about the GI50 (HOP-92 NSCLC) of the same molecule?
Its GI50 is 208 nM.

What about the TGI (HOP-92 NSCLC) of the same molecule?
The TGI was 724 nM.

What about the GI50 (HCT-116 colon) of the same molecule?
The GI50 was 36.3 nM.

And the TGI (HCT-116 colon)?
Its TGI is 1050 nM.

And the GI50 (CAKI-1 renal)?
The GI50 was 179 nM.

And the TGI (CAKI-1 renal)?
The TGI was 988 nM.

And the GI50 (HCC-2998 colon)?
The GI50 was 26.9 nM.

What about the TGI (HCC-2998 colon) of the same molecule?
Its TGI is 129 nM.

And the GI50 (SK-MEL-5 melanoma)?
Its GI50 is 43.1 nM.

And the TGI (SK-MEL-5 melanoma)?
The TGI was 181 nM.

And the GI50 (SK-MEL-2 melanoma)?
The GI50 was 216 nM.

What about the TGI (SK-MEL-2 melanoma) of the same molecule?
Its TGI is 642 nM.

What about the GI50 (UO-31 renal) of the same molecule?
Its GI50 is 49.8 nM.

What about the TGI (UO-31 renal) of the same molecule?
The TGI was 449 nM.

And the GI50 (IGROV1 ovarian)?
Its GI50 is 64.7 nM.

What about the TGI (IGROV1 ovarian) of the same molecule?
Its TGI is 525 nM.

And the GI50 (SK-OV-3 ovarian)?
The GI50 was 159 nM.

And the TGI (SK-OV-3 ovarian)?
The TGI was 1620 nM.

And the GI50 (A498 renal)?
Its GI50 is 17.3 nM.

What about the TGI (A498 renal) of the same molecule?
Its TGI is 163 nM.

What about the GI50 (MDA-MB-468 breast) of the same molecule?
The GI50 was 25.5 nM.

What about the TGI (MDA-MB-468 breast) of the same molecule?
Its TGI is 115 nM.

What about the GI50 (KM12 colon) of the same molecule?
Its GI50 is 56.8 nM.

What about the TGI (KM12 colon) of the same molecule?
Its TGI is 546 nM.

And the GI50 (BT-549 breast)?
The GI50 was 90.7 nM.

What about the TGI (BT-549 breast) of the same molecule?
The TGI was 412 nM.

And the GI50 (MDA-MB-231 breast)?
Its GI50 is 247 nM.

And the TGI (MDA-MB-231 breast)?
Its TGI is 690 nM.

And the GI50 (NCI-H226 lung)?
Its GI50 is 31.7 nM.

What about the TGI (NCI-H226 lung) of the same molecule?
Its TGI is 351 nM.

And the GI50 (T-47D breast)?
Its GI50 is 191 nM.

What about the TGI (T-47D breast) of the same molecule?
Its TGI is 919 nM.

And the GI50 (MOLT-4 leukemia)?
Its GI50 is 20.2 nM.

What about the TGI (MOLT-4 leukemia) of the same molecule?
The TGI was 140 nM.

And the GI50 (786-0 renal)?
The GI50 was 104 nM.

And the TGI (786-0 renal)?
Its TGI is 544 nM.

What about the GI50 (NCI-H460 lung) of the same molecule?
Its GI50 is 21.2 nM.

What about the TGI (NCI-H460 lung) of the same molecule?
The TGI was 82 nM.

And the GI50 (UACC-62 melanoma)?
Its GI50 is 144 nM.

What about the TGI (UACC-62 melanoma) of the same molecule?
The TGI was 603 nM.

And the GI50 (MDA-MB-435)?
Its GI50 is 101 nM.

And the TGI (MDA-MB-435)?
The TGI was 351 nM.

And the GI50 (SF-539 CNS)?
The GI50 was 23 nM.

What about the TGI (SF-539 CNS) of the same molecule?
Its TGI is 58 nM.

What about the GI50 (HCT-15 colon) of the same molecule?
The GI50 was 36.4 nM.

And the TGI (HCT-15 colon)?
Its TGI is 1270 nM.

What about the GI50 (HL-60(TB) leukemia) of the same molecule?
Its GI50 is 14.3 nM.

And the TGI (HL-60(TB) leukemia)?
Its TGI is 65.5 nM.

What about the GI50 (OVCAR-4 ovarian) of the same molecule?
The GI50 was 39.5 nM.

And the TGI (OVCAR-4 ovarian)?
The TGI was 354 nM.

What about the GI50 (M14 melanoma) of the same molecule?
Its GI50 is 50.4 nM.

What about the TGI (M14 melanoma) of the same molecule?
The TGI was 196 nM.

What about the GI50 (COLO 205 colon) of the same molecule?
Its GI50 is 91.6 nM.

And the TGI (COLO 205 colon)?
Its TGI is 397 nM.

What about the GI50 (A549 NSCLC) of the same molecule?
Its GI50 is 52.1 nM.

And the TGI (A549 NSCLC)?
The TGI was 10700 nM.

And the GI50 (EKVX NSCLC)?
Its GI50 is 116 nM.

What about the TGI (EKVX NSCLC) of the same molecule?
The TGI was 775 nM.

What about the GI50 (SF-268 CNS) of the same molecule?
The GI50 was 192 nM.

And the TGI (SF-268 CNS)?
Its TGI is 709 nM.

What about the GI50 (HS 578T breast) of the same molecule?
The GI50 was 138 nM.

What about the TGI (HS 578T breast) of the same molecule?
Its TGI is 545 nM.

And the GI50 (OVCAR-5 ovarian)?
The GI50 was 170 nM.

And the TGI (OVCAR-5 ovarian)?
Its TGI is 596 nM.

What about the GI50 (DU-145 prostate) of the same molecule?
The GI50 was 145 nM.

And the TGI (DU-145 prostate)?
The TGI was 645 nM.

What about the GI50 (SNB-75 CNS) of the same molecule?
The GI50 was 156 nM.

What about the TGI (SNB-75 CNS) of the same molecule?
Its TGI is 417 nM.

And the GI50 (OVCAR-8 ovarian)?
Its GI50 is 130 nM.

What about the TGI (OVCAR-8 ovarian) of the same molecule?
The TGI was 787 nM.

And the GI50 (K-562 leukemia)?
The GI50 was 28.9 nM.

What about the TGI (K-562 leukemia) of the same molecule?
The TGI was 116 nM.

What about the GI50 (SW-620 colon) of the same molecule?
Its GI50 is 57.5 nM.

And the TGI (SW-620 colon)?
Its TGI is 473 nM.
